Assay results reported in US8871937B2, “8-hydroxy-quinoline derivatives” (“AVIDIN” Kutato, Fejleszto es Kereskedelmi Korlatolt …, priority 2010, dated 2014).

How the values were obtained:
[1] = system: HepG2 (human hepatocellular carcinoma); experiment: MTS cytotoxicity test, HepG2; type: cell-based; details: HepG2 (liver), read-out: EC50 (concentration where half of the cells died, MTS test)
Protocol: (§1) In our experiment, HepG2 and Hep3B (human hepatocellular carcinoma), SUM149PT (human breast tumour), K562 (human erythroblastic leukaemia, U87 (human glioma), CCRF-CEM (human leukaemia) cell cultures were used; these were grown in the following medium: U87, CCRF-CEM; Dulbecco's Modified Eagle Medium (D-MEM) (high glucose) (Gibco BRL, Carlsbad, Calif., USA), penicillin (50 IU/ml-streptomycin ([…]), 10% foetal cattle serum.
(§2) 1:1 mixture of HepG2, Hep3B, SUM149PT: Dulbecco's Modified Eagle Medium (D-MEM) (high glucose) (Gibco BRL, Carlsbad, Calif., USA) and Nutrient Mixture F-12 Ham (Sigma, St. Louis, Mo., USA), penicillin (50 IU/ml)-streptomycin ([…]), 10% foetal cattle serum.
(§3) The cells were placed into 96-well microtitration plates (10 000 cells/well), and after 24 hours the cells were incubated with the various substances. After incubation MTS test (3-(4,5-dimethylthiazol-2-yl)-5-(3-carboxymethoxyphenyl)-2-(4-sulphophenyl)-2H-tetrazolium) (Promega, Madison, Wis., USA) was conducted adding it in a final concentration of 0.5 mg/ml to the cells, which were then incubated at 37° C. for 1 hour. The cells were washed with PBS and the formazan dye was dissolved in isopropanol. The amount of the formazan dye transformed was measured by means of a Powerwave reader (Biotek, Winooski, Vt.) at 570 nm; background measurement 690 nm. The calibration curve was obtained in such a way that the capacity of the serial dilutions of the cells to transform MTS was measured and the viable cell count was calculated using Gen5 software.
(§4) In the table the EC50 values of each substance is presented (the concentration where half of the cells died based on the results of the MTS test).

U87 (human glioma) = experiment: MTS cytotoxicity test, U87; type: cell-based; details: U-87 MG, read-out: EC50 (concentration where half of the cells died, MTS test)
Protocol: as §1, §3, §4

[2] = system: K562 (human erythroblastic leukaemia); experiment: MTS cytotoxicity test, K562; type: cell-based; details: read-out: EC50 (concentration where half of the cells died, MTS test)
Protocol: as §1, §3, §4

[3] = biological target: T1, Matrix metalloproteinase 9 (MMP-9, 92 kDa gelatinase) (Rattus norvegicus, UniProt P50282); experiment: Gelatinase activity in gel after electrophoresis of H9c2 supernatant (MMP-9); type: biochemical; details: 30 uM, substance present during incubation of the gel
T1 construct: endogenous in cells; host or cells: H9c2 rat embryonic myocardial cells (culture supernatant)
Protocol: (§5) H9c2 rat embryonic myocardial cells (from ATCC, Rockville, Md., USA) were grown in Dulbecco's modified eagle's medium containing 10% cattle serum, 4 mM L-glutamine (Sigma-Aldrich, Hungary), 100 IU/ml penicillin and 100 ug/ml streptomycin.

[4] = system: CCRF-CEM (human leukaemia); experiment: MTS cytotoxicity test, CCRF-CEM; type: cell-based; details: read-out: EC50 (concentration where half of the cells died, MTS test)
Protocol: as §1
CCRF-CEM: RPMI Media 1640 (Gibco BRL, Carlsbad, Calif., USA), penicillin (50 IU/ml-streptomycin ([…]), 10% foetal cattle serum.
as §3, §4

[5] = system: SUM149PT (human breast tumour); experiment: MTS cytotoxicity test, SUM149PT; type: cell-based; details: read-out: EC50 (concentration where half of the cells died, MTS test)
Protocol: as §1, §2, §3, §4

[6] = biological target: T2, Matrix metalloproteinase 2 (MMP-2, 72 kDa gelatinase) (Rattus norvegicus, UniProt P33436); experiment: Gelatinase activity in gel after electrophoresis of H9c2 supernatant (MMP-2); type: biochemical; details: 30 uM, substance present during incubation of the gel
T2 construct: endogenous in cells; host or cells: H9c2 rat embryonic myocardial cells (culture supernatant)
T2 sequence (P33436 110-662): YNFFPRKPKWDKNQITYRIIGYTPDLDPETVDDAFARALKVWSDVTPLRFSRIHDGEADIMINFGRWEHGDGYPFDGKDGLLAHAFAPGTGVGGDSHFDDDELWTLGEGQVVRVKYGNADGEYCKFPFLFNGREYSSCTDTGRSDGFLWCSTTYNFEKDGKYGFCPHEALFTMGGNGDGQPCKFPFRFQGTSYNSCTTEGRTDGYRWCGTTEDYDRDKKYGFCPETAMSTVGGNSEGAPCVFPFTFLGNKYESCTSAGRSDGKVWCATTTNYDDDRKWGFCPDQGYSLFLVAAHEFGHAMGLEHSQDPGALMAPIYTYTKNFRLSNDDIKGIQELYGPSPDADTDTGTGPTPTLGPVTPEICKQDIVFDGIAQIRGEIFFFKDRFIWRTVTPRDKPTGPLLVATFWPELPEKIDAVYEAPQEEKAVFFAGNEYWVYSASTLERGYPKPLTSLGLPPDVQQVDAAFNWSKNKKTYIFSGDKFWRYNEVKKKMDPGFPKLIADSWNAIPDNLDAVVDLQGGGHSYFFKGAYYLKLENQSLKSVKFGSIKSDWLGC
Protocol: as §5

Lewis rats = experiment: Heterotopic heart transplantation, reperfusion injury; type: in vivo, rat; details: 3 mg/kg
Protocol: A heterotropic heart transplant experiment model was performed in a way described earlier (Poly(ADP-Ribose): inhibition of polymerase reduces the reperfusion injury occurring after heart transplantation (Szabó et al. 2002) , Briefly: the donor hearts were transplanted from Lewis rats. After ischemic protection performed at 4° C. for 1 hour, the hearts were implanted intraabdominally via anastomising the aorta and the pulmonary artery of the donor heart with the abdominal aorta or vena cava of the recipient rat. Care of all animals was performed by people in line with the requirements of “Principles of Laboratory Animal Care”; National Society of Medical Research, and the Guide for the Care and Use of Laboratory Animals prepared by the National Academy of Sciences; publisher: National Institutes of Health (NIH Publication No. 86-23, revised 1996).
The functional measurements of the transplant were carried out as follows: the left ventricular systolic pressure (LVSP), left ventricular end diastolic pressure (LVEDP), rate of the change of blood pressure (dP/dt) and relaxation time constant (TE) were measured by means of a Millar micromanometer (Millar Instruments, Inc.), with different LV, using an intraventricular ballon. The total coronary blood flow (CBF) was measured on the donor aorta with perivascular ultrasonic flow sample. After determination of the baseline, the endothelium-dependent vasodilator acetylcholine (ACH, 1 nmol/l, 0.2 ml) and bradykinin (BK 0.1 nmol/l, 0.2 ml), and the endothelium-independent vasodilator sodium nitroprussid (SNP, 10 nmol/l, 0.2 ml) were added directly into the coronary arteries of the transplant through the donor aorta. Between the infusions, CBP was allowed to return to the baseline level. The vasodilator response was expressed as the maximum percentage change of CBF from the baseline.
Two transplant groups were studied (n=6/in each group). Just before loosening the aorta clamp, slow injection of common salt solution (control group) or the compound according to Example 1 (3 mg/kg) was started and it was continued during the first 5 minutes of the reperfusion period.
Measurement of the systolic and diastolic function and CBF in group A (control) and group B (compound according to Example 1) was performed 1 hour after reperfusion.

[7] = system: Hep3B (human hepatocellular carcinoma); experiment: MTS cytotoxicity test, Hep3B; type: cell-based; details: Hep3B (liver), read-out: EC50 (concentration where half of the cells died, MTS test)
Protocol: as §1, §2, §3, §4

Wistar rats = experiment: Forced swimming test; type: in vivo, rat; details: 30 mg/kg, previous experiments
Protocol: Wistar rats received from Charles River Laboratories (Budapest, Hungary) were used as test animals. App. 2 month rats were used (200-300 g body weight). The animals were conditioned for app. 1 week. The animals received standard laboratory food (Charles River Laboratories, Budapest, Hungary) and tap water ad libitum. The temperature and humidity were kept at 22±2° C. and 60±10%, respectively. The rats were kept in groups of 5 in 45×35×25 cm Makrolon cages. Day/night cycles of 12 hours were used; the light was switched off at 19:00. The experiments were conducted in the daylight period. The experiments were conducted in accordance with the European Communities Council Directive of 24 Nov. 1985 (86/609/EEC, according to the control and approval of the Animal Welfare Committee of the Institute of Experimental Medicine).
Rats were forced to swim twice as described in the following publication: Porsolt et al., 1978. On the first day every rat was placed in a 15 cm wide, 35 cm high glass cylinder filled with water to 30 cm. […] Behaviour of the animals was recorded by a video camera located 2 meters from the cylinders. The following behaviour factors were recorded: struggling (the animal tries to leave the cylinder by climbing on the walls); swimming (swimming round in the cylinder) and floating (the animal makes only the movements necessary to keep its head above the wafer). […]

[8] = after 60 minute reperfusion, vs control

T1 sequence (P50282 108-708): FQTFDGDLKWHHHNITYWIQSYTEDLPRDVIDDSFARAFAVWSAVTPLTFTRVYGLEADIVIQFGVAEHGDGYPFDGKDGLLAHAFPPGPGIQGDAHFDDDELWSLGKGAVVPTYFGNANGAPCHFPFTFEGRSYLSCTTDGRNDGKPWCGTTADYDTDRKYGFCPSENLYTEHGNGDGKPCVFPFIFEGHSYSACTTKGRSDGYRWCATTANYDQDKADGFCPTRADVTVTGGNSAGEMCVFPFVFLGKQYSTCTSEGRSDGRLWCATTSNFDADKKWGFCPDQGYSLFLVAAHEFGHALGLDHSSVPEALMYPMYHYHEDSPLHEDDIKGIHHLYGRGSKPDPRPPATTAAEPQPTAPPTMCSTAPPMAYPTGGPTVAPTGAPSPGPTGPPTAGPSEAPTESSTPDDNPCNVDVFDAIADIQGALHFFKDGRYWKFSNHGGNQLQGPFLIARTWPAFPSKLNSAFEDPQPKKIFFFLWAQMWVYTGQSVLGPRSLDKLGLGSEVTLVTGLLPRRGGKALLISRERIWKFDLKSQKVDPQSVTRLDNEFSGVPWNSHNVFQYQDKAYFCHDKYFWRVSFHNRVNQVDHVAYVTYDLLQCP

SMILES | EC50 [1] [nM] | EC50 (U87 (human glioma)) [nM] | EC50 [2] [nM] | EC50 [4] [nM] | EC50 [5] [nM] | EC50 [7] [nM] | also measured
Cc1cccc(NC(c2ccc(C(F)(F)F)cc2F)c2ccc3cccnc3c2O)n1 (stereo not shown) [7-((6-methylpyridin-2-ylamino)(2-fluoro-4-(trifluoromethyl)phenyl)methyl)quinolin-8-ol] | 1000 | 2500 | 1500 |  |  |  | 
Cc1cccc(NC(c2ccc([N+](=O)[O-])cc2)c2ccc3cccnc3c2O)n1 (stereo not shown) [Example 1, 7-((6-methylpyridin-2-ylamino) (4-nitrophenyl)methyl)quinolin-8-ol] | 500 | 2500 | 1000 | 1000 | 10000 |  | inhibition of 92 kDa gelatinase (MMP-9) [3]: inhibited the 92 kDa gelatinase (MMP-9) as well, hut to a less extent than the 72 kDa gelatinase; inhibition of 72 kDa gelatinase (MMP-2) [6]: completely inhibited; LVEDP (left ventricular end diastolic pressure) (Lewis rats; [8]): did not show changing values between the groups; LVSP (left ventricular systolic pressure) (Lewis rats; [8]): significantly (P=0.05) higher; peak positive dP/dt (Lewis rats; [8]): significantly (P=0.05) higher; systolic functional recovery (Lewis rats; [8]): significantly better; reperfusion injury after heart transplantation (Lewis rats; injection at start of reperfusion): Reduces Reperfusion Injury; systolic heart function curves (Lewis rats; vs group treated with the carrier (FIG. 1a, 1b)): significant drift to the left
CCOC(=O)c1ccc(NC(c2ccc([N+](=O)[O-])cc2)c2ccc3cccnc3c2O)cc1 (stereo not shown) [Example 2, Ethyl 4-((8-hydroxyquinolin-7-yl) (4-nitrophenyl)methylamino)benzoate] | 2500 | 4000 |  | 1000 |  | 5000 | 
Oc1c(C(Nc2ccc(C(F)(F)F)cc2)c2ccccn2)ccc2cccnc12 (stereo not shown) [Example 5, 7-[pyridin-2-yl-(4-trifluoromethyl-phenylamino)-methyl]-quinolin-8-ol] | 2000 | 3500 |  | 100 |  | 2000 | 
Cc1cccc(NC(c2ccc(C(F)(F)F)cc2)c2ccc3cccnc3c2O)n1 (stereo not shown) [Example 7, 7-[(6-methyl-pyridin-2-ylamino)-(4-trifluoromethyl-phenyl)-methyl]-quinolin-8-ol] | 500 |  | 15000 | 300 |  | 5000 | 
Cc1ccnc(NC(c2ccc(C(F)(F)F)cc2)c2ccc3cccnc3c2O)c1 (stereo not shown) [Example 8, 7-[(4-methyl-pyridin-2-ylamino)-(4-trifluoromethylphenyl)-methyl]-quinolin-8-ol] |  |  | 8000 |  | 10000 |  | 
Cc1ccnc(NC(c2ccc(C(F)(F)F)cc2)c2ccc3cccnc3c2O)n1 (stereo not shown) [Example 10, 7-((4-methylpyrimidin-2-ylamino) (4-(trifluoromethyl)phenyl)methyl)quinolin-8-ol] | 1000 | 5000 | 7000 |  | 5000 |  | 
Cc1ccnc(NC(c2ccccc2O)c2ccc3cccnc3c2O)n1 (stereo not shown) [Example 11, 7-[(2-hydroxyphenyl)-(4-methyl-pyrimidin-2-ylamino)-methyl]-quinolin-8-ol] | 1000 |  | 5000 |  |  |  | 
Cc1cccc(NC(c2ccc(F)c(F)c2)c2ccc3cccnc3c2O)n1 (stereo not shown) [Example 16, 7-((6-methylpyridin-2-ylamino) (3,4-difluorophenyl)methyl)quinolin-8-ol] | 5000 | 2500 | 1500 |  |  |  | 
CN(C)CCCN1c2ccccc2CCc2ccccc21 [impipramine, imipramine] |  |  |  |  |  |  | floating in forced swimming test (Wistar rats): reliably reduced floating
